Laboratory results from ChEMBL document CHEMBL5042486, “Discovery and Preclinical Characterization of BIIB091, a Reversible, Selective BTK Inhibitor for the Treatment of Multiple Sclerosis” (J Med Chem, 2022).
Activity calls are given as the source filed them. The rule behind the calls is not given here.

How the values were obtained:
[1] = Kinetic aqueous solubility of the compound in pH 6.8; type: physicochemical; conditions: read-out: Kinetic_solubility
[2] = Lipophilicity, logD of the compound at pH 7.6 by shake flask assay; type: physicochemical; conditions: buffer
[3] = Clearance in Sprague-Dawley rat assessed as hepatic blood flow at 1 mg/kg, iv; type: ADME, organism-based, Liver; conditions: in vivo
[4] = Clearance in Beagle dog assessed as hepatic blood flow at 1 mg/kg, iv; type: ADME, organism-based, Canis lupus familiaris, Liver; conditions: in vivo
Aurora kinase A = Aurora kinase A (Homo sapiens, UniProt O14965); assay: Binding affinity to wild-type human partial length AURKA (E122 to K401 residues) expressed in mammalian expression system by Kinomescan method
[5] = target: Cyclin-dependent kinase-like 2 (Homo sapiens, UniProt Q92772); assay: Binding affinity to wild-type human partial length CDKL2 (M1 to D327 residues) expressed in bacterial expression system by Kinomescan method
[6] = target: Mitogen-activated protein kinase kinase kinase 13 (Homo sapiens, UniProt O43283); assay: Binding affinity to wild-type human full length LZK (M1 to W966 residues) expressed in mammalian expression system by Kinomescan method
[7] = target: Dual specificity mitogen-activated protein kinase kinase 2 (Homo sapiens, UniProt P36507); assay: Binding affinity to wild-type human full length MEK2 (M1 to V400 residues) expressed in mammalian expression system by Kinomescan method
[8] = target: Phosphatidylinositol 4-phosphate 5-kinase type-1 gamma (Homo sapiens, UniProt O60331); assay: Binding affinity to wild-type human partial length PIP5K1C (M1 to T668 residues) expressed in mammalian expression system by Kinomescan method
[9] = target: Proto-oncogene tyrosine-protein kinase Src (Homo sapiens, UniProt P12931); assay: Binding affinity to wild-type human partial length SRC (L240 to L536 residues) expressed in bacterial expression system by Kinomescan method
[10] = target: Tyrosine-protein kinase Tec (Homo sapiens, UniProt P42680); assay: Binding affinity to wild-type human partial length TEC (L341 to D620 residues) expressed in bacterial expression system by Kinomescan method
[11] = Volume of distribution at steady state in cynomolgus monkey at 5 mg/kg, po; type: ADME, organism-based, Macaca fascicularis; conditions: in vivo
[12] = target: Voltage-gated inwardly rectifying potassium channel KCNH2 (Homo sapiens, UniProt Q12809); assay: Inhibition of human ERG by patch clamp method; type: toxicity
[13] = target: Voltage-dependent L-type calcium channel subunit alpha-1C (Homo sapiens, UniProt Q13936); assay: Inhibition of human Cav1.2; type: toxicity
[14] = Hepatotoxicity in rat primary cells assessed as change in ATP level for 10 days; type: toxicity, cell-based, Hepatocyte; conditions: hepatocytes, 240 h, time 10 day
[15] = Hepatotoxicity in rat primary cells assessed as change in GSH level for 10 days; type: toxicity, cell-based, Hepatocyte; conditions: hepatocytes, 240 h, time 10 day
[16] = Hepatotoxicity in rat primary cells assessed as change in albumin level for 10 days; type: toxicity, cell-based, Hepatocyte; conditions: hepatocytes, 240 h, time 10 day
[17] = target: T1, Sodium channel protein type 5 subunit alpha (Homo sapiens, UniProt Q14524); assay: Inhibition of tonic human Nav1.5; type: toxicity
T1 sequence (Q14524 whole entry): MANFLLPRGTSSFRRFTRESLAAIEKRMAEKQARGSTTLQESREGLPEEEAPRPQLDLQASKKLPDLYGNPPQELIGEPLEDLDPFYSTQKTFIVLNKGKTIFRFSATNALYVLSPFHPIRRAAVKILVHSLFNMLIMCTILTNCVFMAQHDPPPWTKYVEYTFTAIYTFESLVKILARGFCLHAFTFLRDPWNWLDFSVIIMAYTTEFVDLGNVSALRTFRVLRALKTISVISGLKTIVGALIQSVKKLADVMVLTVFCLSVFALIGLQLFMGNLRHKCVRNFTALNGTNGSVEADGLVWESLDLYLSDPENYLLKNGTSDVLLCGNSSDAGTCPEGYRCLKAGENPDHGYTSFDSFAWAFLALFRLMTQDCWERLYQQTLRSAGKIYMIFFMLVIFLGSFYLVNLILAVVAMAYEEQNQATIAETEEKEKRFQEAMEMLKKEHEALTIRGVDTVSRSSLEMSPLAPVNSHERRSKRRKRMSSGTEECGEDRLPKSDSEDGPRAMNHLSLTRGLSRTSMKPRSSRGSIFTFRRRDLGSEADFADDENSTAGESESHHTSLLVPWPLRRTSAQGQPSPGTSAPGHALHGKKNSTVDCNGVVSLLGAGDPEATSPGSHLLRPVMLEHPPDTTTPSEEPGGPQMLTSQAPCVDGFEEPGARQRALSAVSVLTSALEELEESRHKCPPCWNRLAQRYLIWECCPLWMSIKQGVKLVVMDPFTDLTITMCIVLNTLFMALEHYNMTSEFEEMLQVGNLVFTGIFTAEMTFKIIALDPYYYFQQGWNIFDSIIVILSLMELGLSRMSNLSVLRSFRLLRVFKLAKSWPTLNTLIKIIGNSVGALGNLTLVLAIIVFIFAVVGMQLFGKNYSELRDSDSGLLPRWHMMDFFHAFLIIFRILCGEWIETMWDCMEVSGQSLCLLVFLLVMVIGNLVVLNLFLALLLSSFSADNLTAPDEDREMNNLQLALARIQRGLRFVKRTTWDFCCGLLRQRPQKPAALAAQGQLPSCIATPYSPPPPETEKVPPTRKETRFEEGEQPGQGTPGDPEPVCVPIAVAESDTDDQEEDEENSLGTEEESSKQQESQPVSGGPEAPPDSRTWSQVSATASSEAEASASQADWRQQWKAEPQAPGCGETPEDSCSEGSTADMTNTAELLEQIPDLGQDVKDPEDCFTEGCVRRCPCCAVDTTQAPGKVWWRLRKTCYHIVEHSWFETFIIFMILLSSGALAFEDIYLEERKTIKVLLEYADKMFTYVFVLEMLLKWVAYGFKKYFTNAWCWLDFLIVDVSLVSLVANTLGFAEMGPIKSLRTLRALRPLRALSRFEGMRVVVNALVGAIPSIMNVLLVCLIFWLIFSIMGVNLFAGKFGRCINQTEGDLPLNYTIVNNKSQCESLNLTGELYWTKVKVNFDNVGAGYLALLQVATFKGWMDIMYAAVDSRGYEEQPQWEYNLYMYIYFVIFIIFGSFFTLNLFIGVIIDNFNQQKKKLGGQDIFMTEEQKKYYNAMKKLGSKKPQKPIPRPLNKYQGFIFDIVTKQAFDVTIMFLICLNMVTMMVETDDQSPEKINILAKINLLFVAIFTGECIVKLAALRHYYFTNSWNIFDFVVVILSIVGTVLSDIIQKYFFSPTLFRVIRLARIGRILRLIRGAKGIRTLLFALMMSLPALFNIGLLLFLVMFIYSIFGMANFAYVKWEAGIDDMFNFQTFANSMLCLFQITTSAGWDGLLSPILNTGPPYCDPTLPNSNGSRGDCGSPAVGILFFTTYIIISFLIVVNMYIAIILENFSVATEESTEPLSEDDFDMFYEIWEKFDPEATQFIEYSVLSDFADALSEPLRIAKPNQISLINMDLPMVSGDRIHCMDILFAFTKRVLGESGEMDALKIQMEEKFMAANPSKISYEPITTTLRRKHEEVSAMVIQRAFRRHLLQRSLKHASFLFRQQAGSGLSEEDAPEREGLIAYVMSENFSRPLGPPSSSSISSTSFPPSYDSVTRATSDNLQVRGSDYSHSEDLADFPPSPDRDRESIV

[18] = target: T1, Sodium channel protein type 5 subunit alpha; assay: Inhibition of phasic human Nav1.5; type: toxicity
[19] = In vivo toxicity in Sprague-Dawley rat assessed as compound related pathology findings at 500 mg/kg after 28 days; type: organism-based; conditions: 672 h, time 28 day
Cynomolgus monkey = assay: In vivo toxicity in cynomolgus monkey assessed as compound related ECG findings at 250 mg/kg after 28 days; type: organism-based, Macaca fascicularis; conditions: 672 h, time 28 day
[20] = Dissociation constant, pKa of the compound; type: physicochemical
[21] = target: Early activation antigen CD69 (Homo sapiens, UniProt Q07108); assay: Inhibition of CD69 (unknown origin) assessed as reduction in BCR mediated B cell activation; type: cell-based
CD63 antigen = CD63 antigen (Homo sapiens, UniProt P08962); assay: Inhibition of CD63 (unknown origin) assessed as FcepsilonR induced basophil activation
CD63 antigen, sequence (P08962 whole entry): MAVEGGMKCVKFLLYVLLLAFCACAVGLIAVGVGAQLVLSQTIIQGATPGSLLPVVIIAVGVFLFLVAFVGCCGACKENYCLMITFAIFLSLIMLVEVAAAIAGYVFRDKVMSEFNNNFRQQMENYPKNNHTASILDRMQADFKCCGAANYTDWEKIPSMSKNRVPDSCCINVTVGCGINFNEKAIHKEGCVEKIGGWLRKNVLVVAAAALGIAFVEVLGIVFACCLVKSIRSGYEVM

[22] = target: Toll-like receptor 9 (Homo sapiens) (UniProt Q9NR96); assay: Inhibition of TLR9 in CpG-B stimulated human PBMC at >10 uM; type: cell-based; conditions: dose microM >10
Toll-like receptor 9 (Homo sapiens), sequence (Q9NR96 whole entry): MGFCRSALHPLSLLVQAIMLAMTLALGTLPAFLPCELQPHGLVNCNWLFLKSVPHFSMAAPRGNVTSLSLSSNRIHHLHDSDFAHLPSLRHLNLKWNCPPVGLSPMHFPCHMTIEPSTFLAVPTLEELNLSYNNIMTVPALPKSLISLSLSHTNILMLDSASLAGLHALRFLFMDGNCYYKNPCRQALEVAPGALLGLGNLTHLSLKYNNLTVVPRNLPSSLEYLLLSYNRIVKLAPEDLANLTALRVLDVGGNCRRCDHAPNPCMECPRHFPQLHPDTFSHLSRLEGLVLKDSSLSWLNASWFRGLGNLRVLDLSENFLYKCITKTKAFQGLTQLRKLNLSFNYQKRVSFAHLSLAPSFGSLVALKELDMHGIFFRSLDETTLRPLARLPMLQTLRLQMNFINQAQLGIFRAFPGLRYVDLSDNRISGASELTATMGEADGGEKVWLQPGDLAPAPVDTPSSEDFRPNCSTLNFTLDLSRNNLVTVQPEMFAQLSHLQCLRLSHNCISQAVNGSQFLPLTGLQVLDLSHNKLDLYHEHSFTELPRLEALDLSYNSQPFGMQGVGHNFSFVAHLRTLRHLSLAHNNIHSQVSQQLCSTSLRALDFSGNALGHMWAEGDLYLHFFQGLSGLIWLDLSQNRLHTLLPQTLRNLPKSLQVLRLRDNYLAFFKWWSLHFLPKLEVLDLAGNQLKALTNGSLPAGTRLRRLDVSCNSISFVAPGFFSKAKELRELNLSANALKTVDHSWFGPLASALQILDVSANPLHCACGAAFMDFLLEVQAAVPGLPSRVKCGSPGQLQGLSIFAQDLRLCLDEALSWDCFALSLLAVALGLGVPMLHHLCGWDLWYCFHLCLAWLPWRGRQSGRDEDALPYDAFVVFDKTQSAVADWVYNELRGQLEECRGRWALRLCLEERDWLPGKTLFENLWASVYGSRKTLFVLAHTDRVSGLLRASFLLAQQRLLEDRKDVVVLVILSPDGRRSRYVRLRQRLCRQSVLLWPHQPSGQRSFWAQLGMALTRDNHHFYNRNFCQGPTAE

[23] = target: Tumor necrosis factor receptor superfamily member 5 (Homo sapiens) (UniProt P25942); assay: Inhibition of CD40 in IL-4/[…] stimulated human PBMC at >10 uM; type: cell-based; conditions: dose microM >10
[24] = In vivo inhibition of BTK-dependent B cell activation in C57BL/6 mouse immunized with NP-Ficoll assessed as reduction in anti-NP IgM antibody titer at 30 mg/kg, po BID dosed for 10 days; type: functional; parameters: scale not given: the % may be the effect or the level left; conditions: time 10 day
[25] = In vivo inhibition of BTK-dependent B cell activation in C57BL/6 mouse immunized with NP-Ficoll assessed as reduction in anti-NP IgM antibody titer at 0.3 mg/kg, po BID dosed for 10 days; type: functional; parameters: scale not given: the % may be the effect or the level left; conditions: time 10 day
[26] = In vivo inhibition of BTK-dependent B cell activation in C57BL/6 mouse immunized with NP-Ficoll assessed as reduction in anti-NP IgM antibody titer at 0.1 mg/kg, po BID dosed for 10 days; type: functional; parameters: scale not given: the % may be the effect or the level left; conditions: time 10 day
[27] = In vivo inhibition of BTK-dependent B cell activation in C57BL/6 mouse immunized with NP-Ficoll assessed as reduction in anti-NP IgM antibody titer at 0.03 mg/kg, po BID dosed for 10 days; type: functional; parameters: scale not given: the % may be the effect or the level left; conditions: time 10 day
[28] = In vivo inhibition of BTK-dependent B cell activation in C57BL/6 mouse immunized with NP-Ficoll assessed as reduction in anti-NP IgM antibody titer; type: toxicity, organism-based
[29] = Apparent permeability across apical to basolateral side in human Caco2 cells; type: ADME, cell-based; conditions: Caco-2
[30] = Apparent permeability across basolateral to apical side in human Caco2 cells; type: ADME, cell-based; conditions: Caco-2
Bile salt export pump = Bile salt export pump (Homo sapiens, UniProt O95342); assay: Inhibition of BSEP (unknown origin) at >30 uM
Bile salt export pump, sequence (O95342 whole entry): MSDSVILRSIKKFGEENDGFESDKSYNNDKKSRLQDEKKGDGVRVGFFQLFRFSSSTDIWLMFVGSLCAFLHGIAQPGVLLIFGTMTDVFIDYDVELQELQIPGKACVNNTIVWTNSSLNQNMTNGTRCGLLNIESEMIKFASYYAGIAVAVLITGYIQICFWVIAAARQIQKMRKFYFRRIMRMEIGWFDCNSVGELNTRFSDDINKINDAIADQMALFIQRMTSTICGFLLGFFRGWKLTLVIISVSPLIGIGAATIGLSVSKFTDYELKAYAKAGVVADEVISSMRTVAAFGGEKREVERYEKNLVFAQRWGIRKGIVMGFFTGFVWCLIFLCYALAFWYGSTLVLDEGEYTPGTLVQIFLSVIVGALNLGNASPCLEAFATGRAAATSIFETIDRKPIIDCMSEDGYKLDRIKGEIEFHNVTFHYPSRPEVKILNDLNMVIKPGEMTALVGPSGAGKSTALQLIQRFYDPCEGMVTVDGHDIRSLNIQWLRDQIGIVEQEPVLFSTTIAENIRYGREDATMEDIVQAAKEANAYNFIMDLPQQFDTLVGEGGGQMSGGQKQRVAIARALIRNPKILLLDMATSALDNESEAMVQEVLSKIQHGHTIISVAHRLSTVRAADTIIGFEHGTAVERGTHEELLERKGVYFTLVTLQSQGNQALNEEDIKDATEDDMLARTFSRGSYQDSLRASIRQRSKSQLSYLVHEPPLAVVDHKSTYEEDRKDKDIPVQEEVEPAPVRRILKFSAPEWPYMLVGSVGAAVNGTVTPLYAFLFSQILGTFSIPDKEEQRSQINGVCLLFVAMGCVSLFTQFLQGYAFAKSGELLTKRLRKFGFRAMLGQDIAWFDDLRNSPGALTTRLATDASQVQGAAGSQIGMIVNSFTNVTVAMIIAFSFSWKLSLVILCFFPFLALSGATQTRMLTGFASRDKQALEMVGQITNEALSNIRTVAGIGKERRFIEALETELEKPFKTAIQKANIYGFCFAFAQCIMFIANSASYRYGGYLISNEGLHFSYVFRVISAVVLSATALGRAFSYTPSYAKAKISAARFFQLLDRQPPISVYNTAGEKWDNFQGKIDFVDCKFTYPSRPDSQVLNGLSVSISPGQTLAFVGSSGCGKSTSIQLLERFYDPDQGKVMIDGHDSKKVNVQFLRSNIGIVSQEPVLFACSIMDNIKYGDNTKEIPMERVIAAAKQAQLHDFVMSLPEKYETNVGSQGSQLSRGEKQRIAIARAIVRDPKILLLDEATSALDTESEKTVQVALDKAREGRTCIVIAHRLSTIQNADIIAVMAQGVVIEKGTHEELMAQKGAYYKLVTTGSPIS

[31] = target: Broad substrate specificity ATP-binding cassette transporter ABCG2 (Homo sapiens, UniProt Q9UNQ0); assay: Inhibition of BCRP (unknown origin) at >30 uM
[32] = Protein binding in human plasma assessed as unbound fraction; type: ADME, cell-free
Cytochrome P450 3A4 = Cytochrome P450 3A4 (Homo sapiens, UniProt P08684); assay: Inhibition of CYP3A4 in human liver microsomes at 10 to 50 uM; type: ADME; conditions: dose 10-50 µM
Cytochrome P450 2C9 = Cytochrome P450 2C9 (Homo sapiens, UniProt P11712); assay: Inhibition of CYP2C9 in human liver microsomes at 10 to 50 uM; type: ADME; conditions: dose 10-50 µM
Cytochrome P450 2C19 = Cytochrome P450 2C19 (Homo sapiens, UniProt P33261); assay: Inhibition of CYP2C19 in human liver microsomes at 10 to 50 uM; type: ADME; conditions: dose 10-50 µM
Cytochrome P450 1A2 = Cytochrome P450 1A2 (Homo sapiens, UniProt P05177); assay: Inhibition of CYP1A2 in human liver microsomes at 10 to 50 uM; type: ADME; conditions: dose 10-50 µM
Cytochrome P450 1A2, sequence (P05177 whole entry): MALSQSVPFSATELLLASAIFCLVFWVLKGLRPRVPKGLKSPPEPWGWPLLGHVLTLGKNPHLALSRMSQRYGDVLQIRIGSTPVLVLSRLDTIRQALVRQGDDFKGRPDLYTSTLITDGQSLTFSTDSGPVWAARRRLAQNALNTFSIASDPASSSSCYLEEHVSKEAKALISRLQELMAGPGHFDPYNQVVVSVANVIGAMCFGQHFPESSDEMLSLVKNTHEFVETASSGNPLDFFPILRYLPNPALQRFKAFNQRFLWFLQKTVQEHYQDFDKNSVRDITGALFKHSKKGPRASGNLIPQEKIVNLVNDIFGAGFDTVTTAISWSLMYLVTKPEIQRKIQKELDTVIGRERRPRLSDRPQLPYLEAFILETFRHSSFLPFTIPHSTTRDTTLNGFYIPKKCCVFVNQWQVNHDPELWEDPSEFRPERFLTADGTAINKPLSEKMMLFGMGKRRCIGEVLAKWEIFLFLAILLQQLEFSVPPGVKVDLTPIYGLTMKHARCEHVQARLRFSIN

[33] = Protein binding in rat plasma assessed as unbound fraction; type: ADME, cell-free
[34] = In vivo toxicity in cynomolgus monkey assessed as NOAEL after 28 days; type: organism-based, Macaca fascicularis; conditions: time 28 day
Liver [35] = assay: Drugmetabolism in rat liver microsomes assessed as metabolite formation; type: ADME, Microsome
Liver [36] = assay: Drugmetabolism in human liver microsomes assessed as metabolite formation; type: ADME, Microsome
[37] = Drugmetabolism in cynomolgus monkey hepatocytes assessed as metabolite formation; type: ADME, cell-based, Macaca fascicularis, Hepatocyte
[38] = Drugmetabolism in human hepatocytes assessed as metabolite formation; type: ADME, cell-based, Hepatocyte

solubility kinetic [1]: > 50 µg/mL
logD [2]: 2.2
QH [3]: 22%
QH [4]: 33%
Kd (Aurora kinase A): 660 nM
Kd [5]: 240 nM
Kd [6]: > 3000 nM
Kd [7]: 200 nM
Kd [8]: 420 nM
Kd [9]: 320 nM
Kd [10]: 240 nM
Vdss [11]: 0.7 L/kg
pKa [20]: 2.8
IC50 [21]: 71 nM
IC50 (CD63 antigen): 82 nM
inhibition [22]: inactive
Papp A→B [29]: 1.78 ×10⁻⁶ cm/s
Papp B→A [30]: 37.6 ×10⁻⁶ cm/s
inhibition (INH) [31]: Not Active
fraction unbound [32]: 0.26
inhibition (INH) (Cytochrome P450 3A4): Not Active
inhibition (INH) (Cytochrome P450 2C9): Not Active
inhibition (INH) (Cytochrome P450 2C19): Not Active
inhibition (INH) (Cytochrome P450 1A2): Not Active
fraction unbound [33]: 0.1
Drug metabolism (Liver [35]): Metabolite_Notdetected
Drug metabolism (Liver [36]): Metabolite_Notdetected
Drug metabolism [37]: Metabolite_Notdetected
Drug metabolism [38]: Metabolite_Notdetected
Structure (SMILES): Cn1cc(Nc2nccc(-c3ccc4c(c3)CN(C3COC3)CC[C@H]4NC(=O)c3cn(C(C)(C)C)nn3)n2)cn1 [BIIB-091]
IC50 [12]: > 25000 nM
IC50 [13]: > 25000 nM
Activity [14]: Non-Toxic
Activity [15]: Non-Toxic
Activity [16]: Non-Toxic
IC50 [17]: > 25000 nM
IC50 [18]: > 25000 nM
Activity [19]: Non-Toxic
Activity (Cynomolgus monkey): Non-Toxic
inhibition [23]: inactive
Activity [24]: 88%
Activity [25]: 59%
Activity [26]: 44%
Activity [27]: 34%
ED50 [28]: 1.95 mg/kg
inhibition (INH) (Bile salt export pump): Not Active
NOAEL at 672 h [34]: 250 mg/kg
